{"source": "patent US20080113956A1", "about": "“Substituted Porphyrins” (priority 1997, published 2008)", "system": "lung injury", "assay": "Bronchopulmonary dysplasia model: premature neonatal baboon in 100% oxygen", "format": "in vivo", "text": "Neonatal baboons were delivered prematurely by Caesarian section and then treated either with 100% oxygen or only sufficient PRN FIO2 to maintain adequate arterial oxygenation. To establish the model, thirteen 100% oxygen treated animals and twelve PRN control animals were studied. Treatment with 100% oxygen results in extensive lung injury manifested by days 9 or 10 of exposure and characterized by delayed alveolarization, lung parenchymal inflammation, and poor oxygenation. This is characteristic of the human disease, bronchopulmonary dysplasia and is thought to be mediated, at least in part, by oxidative stress on the developing neonatal lung. In a first trial of Mn TE-2-PyP, a neonatal baboon was delivered at 140 days gestation and placed in 100% oxygen. The animal received 0.5 mg/kg/24 hr Mn TE-2-PyP qd given i.v. in a continuous infusion over the entire 10 day study period.", "data": [{"smiles": "CC[n+]1ccccc1-c1c2nc(c(-c3cccc[n+]3CC)c3ccc([n-]3)c(-c3cccc[n+]3CC)c3nc(c(-c4cccc[n+]4CC)c4ccc1[n-]4)C=C3)C=C2.[Mn+3]", "note": "[MnTE-2-PyP^5+, manganic meso-tetrakis-(N-ethylpyridinium-2-yl)porphyrin]", "values": [{"measurement": "lung pathology: inflammation", "setting": "0.5 mg/kg/24 hr i.v., 10 days", "value": "absence of inflammation"}, {"measurement": "clinical decompensation of the lungs", "setting": "days 9 and 10, 0.5 mg/kg/24 hr i.v.", "value": "no evidence of clinical decompensation"}, {"measurement": "oxygenation index", "setting": "neonatal baboon, 100% oxygen, 0.5 mg/kg/24 hr i.v. continuous infusion, 10 days", "value": "marked improvement"}, {"measurement": "lung pathology: lung injury", "setting": "vs prior animals treated with 100% oxygen", "value": "marked decrease"}]}]}
